# Results taken from PubChem BioAssay AID330 (DTP/NCI, 2004).
# “And” between values parts separate entries of the source, which are not always exact repeats. Equal entries are not always repeated. Inconclusive results and toxic doses are left out.
# System: P388 leukemia ip, CD2F1 mice, survival T/C
# Assay: NCI In Vivo Anticancer Drug Screen. Data for tumor model P388 Leukemia (intraperitoneal) in CD2F1 (CDF1) mice
# Settings: endpoint: median survival time, higher = longer survival
# In short: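 Mice carrying the transplanted tumor received test compound or vehicle. Survival was recorded in each group, and the value is the treated-group measurement divided by that of the vehicle-treated control group.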
# [1] = dose: 6.25 mg/kg/injection, schedule: Q01DX005 (ip), vehicle: Klucel (hydroxypropylcellulose) (HPC)
# [2] = dose: 50.0 mg/kg/injection, schedule: Q01DX009 (ip), vehicle: Klucel (hydroxypropylcellulose) (HPC)
# [3] = dose: 60.0 mg/kg/injection, schedule: Q01DX005 (ip), vehicle: saline with Tween-80
# [4] = dose: 120.0 mg/kg/injection, schedule: Q01DX005 (ip), vehicle: saline with Tween-80
# [5] = dose: 240.0 mg/kg/injection, schedule: Q01DX005 (ip), vehicle: saline with Tween-80
# [6] = dose: 100.0 mg/kg/injection, schedule: Q01DX009 (ip), vehicle: saline with Tween-80
# [7] = dose: 100.0 mg/kg/injection, schedule: Q01DX005 (ip), vehicle: Klucel (hydroxypropylcellulose) (HPC)
smiles,measurement,setting,value
CCCCCCCCCC(O)CCCCCC (stereo not drawn),T/C,"dose: 88.0 mg/kg/injection, schedule: Q01DX009 (ip), vehicle: other",109 % of control
same,T/C,"dose: 132.0 mg/kg/injection, schedule: Q01DX009 (ip), vehicle: other",109 % of control
same,T/C,"dose: 200.0 mg/kg/injection, schedule: Q01DX009 (ip), vehicle: other",118 % of control
ClC1=C(Cl)C2(Cl)C=CC1(Cl)C2,T/C,"dose: 50.0 mg/kg/injection, schedule: Q01DX005 (ip), vehicle: saline with Tween-80",106 % of control
same,T/C,"dose: 100.0 mg/kg/injection, schedule: Q01DX005 (ip), vehicle: saline with Tween-80",106 % of control
same,T/C,"dose: 200.0 mg/kg/injection, schedule: Q01DX005 (ip), vehicle: saline with Tween-80",108 % of control
NC(=O)C1C2CCC(O2)C1C(=O)O (stereo not drawn),T/C,"dose: 1.56 mg/kg/injection, schedule: Q01DX005 (ip), vehicle: Klucel (hydroxypropylcellulose) (HPC)",99 % of control
same,T/C,"dose: 3.12 mg/kg/injection, schedule: Q01DX005 (ip), vehicle: Klucel (hydroxypropylcellulose) (HPC)",97 % of control
same,T/C,[1],95 % of control
COc1ccc(CSC(=S)Nc2ccc(F)cc2F)cc1,T/C,[2],99 % of control
same,T/C,"dose: 50.0 mg/kg/injection, schedule: Q01DX009 (ip), vehicle: suspension in saline",106 % of control
same,T/C,"dose: 100.0 mg/kg/injection, schedule: Q01DX009 (ip), vehicle: Klucel (hydroxypropylcellulose) (HPC)",107 % of control
same,T/C,"dose: 100.0 mg/kg/injection, schedule: Q01DX009 (ip), vehicle: suspension in saline",100 % of control
same,T/C,"dose: 200.0 mg/kg/injection, schedule: Q01DX009 (ip), vehicle: Klucel (hydroxypropylcellulose) (HPC)",112 % of control
same,T/C,"dose: 200.0 mg/kg/injection, schedule: Q01DX009 (ip), vehicle: suspension in saline",98 % of control
COc1cccc(C=O)c1OC(=O)Oc1ccccc1,T/C,"dose: 3.13 mg/kg/injection, schedule: Q01DX009 (ip), vehicle: distilled water + Tween-80",111 % of control and 95 % of control
same,T/C,"dose: 6.25 mg/kg/injection, schedule: Q01DX009 (ip), vehicle: distilled water + Tween-80",111 % of control
same,T/C,"dose: 12.5 mg/kg/injection, schedule: Q01DX009 (ip), vehicle: distilled water + Tween-80",100 % of control and 104 % of control
same,T/C,"dose: 25.0 mg/kg/injection, schedule: Q01DX009 (ip), vehicle: distilled water + Tween-80",109 % of control and 113 % of control and 114 % of control
same,T/C,"dose: 50.0 mg/kg/injection, schedule: Q01DX009 (ip), vehicle: distilled water + Tween-80",100 % of control and 103 % of control
COC1=CC(=O)N/C1=C(\OC)c1ccccc1,T/C,[3],90 % of control
same,T/C,[4],93 % of control
same,T/C,[5],99 % of control
Clc1ccc(-c2cc3cc4c(cc3[nH]2)Oc2ccccc2O4)cc1,T/C,"dose: 17.5 mg/kg/injection, schedule: Q01DX009 (ip), vehicle: Klucel (hydroxypropylcellulose) (HPC)",107 % of control
same,T/C,"dose: 35.0 mg/kg/injection, schedule: Q01DX009 (ip), vehicle: Klucel (hydroxypropylcellulose) (HPC)",103 % of control
same,T/C,"dose: 70.0 mg/kg/injection, schedule: Q01DX009 (ip), vehicle: Klucel (hydroxypropylcellulose) (HPC)",103 % of control
CC1CCC/C=C/C2CC(O)CC2C(O)/C=C\C(=O)O1 (stereo not drawn),T/C,"dose: 8.75 mg/kg/injection, schedule: Q01DX005 (ip), vehicle: Klucel (hydroxypropylcellulose) (HPC)",101 % of control
same,T/C,"dose: 17.5 mg/kg/injection, schedule: Q01DX005 (ip), vehicle: Klucel (hydroxypropylcellulose) (HPC)",97 % of control
same,T/C,"dose: 35.0 mg/kg/injection, schedule: Q01DX005 (ip), vehicle: Klucel (hydroxypropylcellulose) (HPC)",93 % of control
same,T/C,"dose: 70.0 mg/kg/injection, schedule: Q01DX005 (ip), vehicle: Klucel (hydroxypropylcellulose) (HPC)",100 % of control
CCCCCCCCCCCCCC(C)NCc1ccccc1 (stereo not drawn),T/C,"dose: 25.0 mg/kg/injection, schedule: Q04DX003 (ip), vehicle: saline with Tween-80",96 % of control
same,T/C,"dose: 50.0 mg/kg/injection, schedule: Q04DX003 (ip), vehicle: saline with Tween-80",100 % of control
COc1cc(C2CC(C)(O)Oc3cc4c(cc32)OCO4)cc(OC)c1OC (stereo not drawn),T/C,"dose: 30.0 mg/kg/injection, schedule: Q01DX005 (ip), vehicle: saline with Tween-80",104 % of control
same,T/C,[3],105 % of control and 108 % of control
CC(c1c[nH]c2ccccc12)N1CCCCC1 (stereo not drawn),T/C,"dose: 12.5 mg/kg/injection, schedule: Q01DX009 (ip), vehicle: Klucel (hydroxypropylcellulose) (HPC)",109 % of control
same,T/C,"dose: 25.0 mg/kg/injection, schedule: Q01DX009 (ip), vehicle: Klucel (hydroxypropylcellulose) (HPC)",115 % of control
same,T/C,[2],113 % of control
O=C(NC1CC(c2ccccc2)(c2ccccc2)OC1=O)c1ccccc1 (stereo not drawn),T/C,"dose: 50.0 mg/kg/injection, schedule: Q01DX009 (ip), vehicle: saline with Tween-80",100 % of control
same,T/C,[6],86 % of control
CN1C(=O)CN(CN2CCOCC2)C1=O,T/C,"dose: 50.0 mg/kg/injection, schedule: Q01DX005 (ip), vehicle: Klucel (hydroxypropylcellulose) (HPC)",106 % of control
same,T/C,[7],115 % of control
same,T/C,"dose: 200.0 mg/kg/injection, schedule: Q01DX005 (ip), vehicle: Klucel (hydroxypropylcellulose) (HPC)",117 % of control
CC(O)(c1ccco1)c1nc2ccccc2s1 (stereo not drawn),T/C,"dose: 60.0 mg/kg/injection, schedule: Q01DX005 (ip), vehicle: Klucel (hydroxypropylcellulose) (HPC)",101 % of control
same,T/C,"dose: 120.0 mg/kg/injection, schedule: Q01DX005 (ip), vehicle: Klucel (hydroxypropylcellulose) (HPC)",101 % of control
CN1CCN=C1c1ccc(NC(=O)c2ccc(C(=O)Nc3ccc(C4=NCCN4C)cc3)cc2)cc1,T/C,"dose: 0.4 mg/kg/injection, schedule: Q01DX009 (ip), vehicle: saline with Tween-80",108 % of control
same,T/C,"dose: 3.0 mg/kg/injection, schedule: Q01DX009 (ip), vehicle: saline with Tween-80",150 % of control
same,T/C,"dose: 4.0 mg/kg/injection, schedule: Q01DX009 (ip), vehicle: saline",166 % of control
same,T/C,"dose: 6.0 mg/kg/injection, schedule: Q01DX009 (ip), vehicle: saline with Tween-80",204 % of control
same,T/C,"dose: 6.0 mg/kg/injection, schedule: Q01DX009 (ip), vehicle: saline",187 % of control
same,T/C,"dose: 6.25 mg/kg/injection, schedule: Q04DX003 (ip), vehicle: saline with Tween-80",118 % of control
same,T/C,"dose: 9.0 mg/kg/injection, schedule: Q01DX009 (ip), vehicle: saline",191 % of control
COC(=O)c1nc(=S)[nH]c(C(=O)OC)c1C(=O)c1cc(Cl)ccc1Cl,T/C,[3],96 % of control
same,T/C,[4],101 % of control
same,T/C,[5],100 % of control
CC(/C=C1\C(=O)N(C)C(CC(C)C(Cl)(Cl)Cl)C(=O)N1C)C(Cl)(Cl)Cl (stereo not drawn),T/C,"dose: 4.75 mg/kg/injection, schedule: Q01DX005 (ip), vehicle: saline with Tween-80",101 % of control
same,T/C,"dose: 9.5 mg/kg/injection, schedule: Q01DX005 (ip), vehicle: saline with Tween-80",100 % of control
same,T/C,"dose: 19.0 mg/kg/injection, schedule: Q01DX005 (ip), vehicle: saline with Tween-80",95 % of control
same,T/C,"dose: 38.0 mg/kg/injection, schedule: Q01DX005 (ip), vehicle: saline with Tween-80",101 % of control
C=CS(=O)(=O)OCCCl,T/C,"dose: 6.25 mg/kg/injection, schedule: Q01DX009 (ip), vehicle: saline with Tween-80",108 % of control and 109 % of control and 111 % of control
same,T/C,"dose: 18.75 mg/kg/injection, schedule: Q01DX009 (ip), vehicle: saline with Tween-80",117 % of control
COc1nc2c(=O)[nH]c(N)nc2n1C1OC(CO)C(O)C1O (stereo not drawn),T/C,[6],98 % of control
same,T/C,"dose: 200.0 mg/kg/injection, schedule: Q01DX009 (ip), vehicle: saline with Tween-80",113 % of control
same,T/C,"dose: 400.0 mg/kg/injection, schedule: Q01DX009 (ip), vehicle: saline with Tween-80",116 % of control
CC(/C=C/c1ccccc1)=N\NC(=O)c1ccccc1,T/C,[1],108 % of control
same,T/C,"dose: 12.5 mg/kg/injection, schedule: Q01DX005 (ip), vehicle: Klucel (hydroxypropylcellulose) (HPC)",97 % of control
same,T/C,"dose: 25.0 mg/kg/injection, schedule: Q01DX005 (ip), vehicle: Klucel (hydroxypropylcellulose) (HPC)",100 % of control and 108 % of control and 96 % of control
same,T/C,[7],112 % of control
O=C1Nc2ccccc2/C1=N/N=c1\scc(-c2ccc(Br)cc2)n1-c1ccc(Cl)cc1,T/C,"dose: 50.0 mg/kg/injection, schedule: Q01DX001 (ip), vehicle: saline with Tween-80",93 % of control
same,T/C,"dose: 100.0 mg/kg/injection, schedule: Q01DX001 (ip), vehicle: saline with Tween-80",99 % of control
same,T/C,"dose: 200.0 mg/kg/injection, schedule: Q01DX001 (ip), vehicle: saline with Tween-80",89 % of control and 94 % of control
COc1ccc(/C=N\N=C(/[O-])c2ccc(Cl)cc2)cc1.COc1ccc(/C=N\N=C(/[O-])c2ccc(Cl)cc2)cc1.[Co+2].[OH3+].[OH3+],T/C,"dose: 100.0 mg/kg/injection, schedule: Q04DX002 (ip), vehicle: saline with Tween-80",93 % of control
same,T/C,"dose: 200.0 mg/kg/injection, schedule: Q04DX002 (ip), vehicle: saline with Tween-80",102 % of control
same,T/C,"dose: 400.0 mg/kg/injection, schedule: Q04DX002 (ip), vehicle: saline with Tween-80",103 % of control
